{"source": "patent US20090149482A1", "about": "“STEREOCHEMICALLY DEFINED DIPEPTIDE ESTERS OF ANTIVIRAL AGENTS FOR ENHANCED OCULAR TREATMENT” (priority 2001, published 2009)", "key": {"hPEPT1": {"molecular_target": "T1, hPEPT1 (Homo sapiens, UniProt P46059)", "T1 construct": "endogenous in cells; host or cells: Caco-2 (human colon carcinoma, ATCC)", "T1 sequence (P46059 1-708)": "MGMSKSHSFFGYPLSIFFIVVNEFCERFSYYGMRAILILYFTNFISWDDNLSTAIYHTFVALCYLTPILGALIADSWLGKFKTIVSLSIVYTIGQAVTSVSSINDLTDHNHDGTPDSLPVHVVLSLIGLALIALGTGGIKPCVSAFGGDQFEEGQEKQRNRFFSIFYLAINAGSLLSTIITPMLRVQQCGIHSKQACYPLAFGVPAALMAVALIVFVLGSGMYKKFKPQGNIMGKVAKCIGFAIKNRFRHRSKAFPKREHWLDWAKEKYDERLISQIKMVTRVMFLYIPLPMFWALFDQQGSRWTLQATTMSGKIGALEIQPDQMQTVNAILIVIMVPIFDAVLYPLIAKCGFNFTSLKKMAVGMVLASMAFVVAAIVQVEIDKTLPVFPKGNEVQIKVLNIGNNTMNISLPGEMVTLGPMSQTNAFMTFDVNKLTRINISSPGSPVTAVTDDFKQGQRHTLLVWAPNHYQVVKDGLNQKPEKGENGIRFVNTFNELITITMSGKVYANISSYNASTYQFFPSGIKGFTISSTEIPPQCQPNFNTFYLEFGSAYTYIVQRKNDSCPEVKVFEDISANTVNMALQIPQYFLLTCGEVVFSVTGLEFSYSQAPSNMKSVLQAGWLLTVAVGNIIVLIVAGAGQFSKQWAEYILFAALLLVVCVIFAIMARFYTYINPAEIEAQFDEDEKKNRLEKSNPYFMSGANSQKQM", "assay": "[3H] Glycylsarcosine uptake and its inhibition in Caco-2 cells (affinity towards peptide transporter)", "format": "cell-based", "details": "for Ki: read-out: Ki", "text": "Materials: [^3H] Glycylsarcosine (Gly-Sar; 4 Ci/mmol) was purchased from Moravek Biochemicals (Brea, Calif.) and [^14C] Mannitol (50 mCi/mmol) was supplied by Amersham (Piscataway, N.J.). Human colon carcinoma derived Caco-2 cells were obtained from American Type Culture Collection (ATCC, Rockville, Md.). The growth medium, Dulbecco's modified Eagle Medium was obtained from Life Technologies (Grand Island, N.Y.). […] Fetal bovine serum (FBS) was purchased from JRH Biosciences (Lenexa, Kans.). Culture flasks (75 cm^2 growth area), polyester Transwells® (pore size 0.4 Cm with diameter 6.5 mm) and polyester membranes (pore size 0.4 Cm) were procured from Costar (Bedford, Mass.). The buffer components and solvents were obtained from Fisher Scientific (St. Louis, Mo.). All the di-peptide esters of acyclovir were custom synthesized in our laboratory. […] Cell Culture: All cultures were maintained in humidified incubator at 37° C. with a 5% carbon dioxide in air atmosphere. Caco-2 cells were obtained at passage 25 from American Type Culture Collection (ATCC) and grown in plastic tissue culture flasks. […] When 80% confluent, these cells were removed by treating them with Trypsin/EDTA and plated at a density of 100,000 cells/cm^2 on collagen coated plastic dishes containing clear polyester membranes (0.636 cm^2, […]) or 12-well tissue culture treated plastic plates. Cells were then grown in medium containing 10% FBS (heat-inactivated). […] [^14C] […] Metabolism studies in Cell Suspensions: Confluent Caco-2 cells, grown in tissue culture flasks were isolated with the aid of mechanical scraper and washed thrice with DPBS. […] One-hundred micro-liters of samples were withdrawn at predetermined time intervals and the sample was purified by precipitating the cellular proteins into the organic solvent mixture and stored at −80° C. until further analysis. The protein content of the cell suspension was determined by the method of Bradford using bovine serum albumin as the standard (BioRad protein estimation kit, Hercules, Calif.). […] Transport studies: Transport experiments were done using Side-Bi-Side™ diffusion cells (type VSC-1, Crown Glass Company Inc.) and Transwell® inserts. Prior to the experiment with Gly-Sar, Caco-2 cell monolayers grown on the clear polyester membranes and Transwell® inserts were washed with DPBS (pH 6.0) and incubated at 37° C. Freshly prepared drug solutions in DPBS (pH 6.0) was placed in the donor chamber and the receiver chamber was filled with DPBS. The volumes of donor and receptor chambers were 3 ml each for Side-Bi-Side™ diffusion cells and 0.5 ml and 1.5 ml respectively for Transwell® inserts. […] The samples were stored at −80° C. until analyzed HPLC. All experiments were performed at 37° C. […] The concentration dependent uptake of glycylsarcosine was studied using [^3H] […] For Dixon plots and Dose Response studies [^3H] […] Following incubation, the cell monolayers were washed three times with ice-cold HEPES buffer to terminate the uptake experiment. After the washings cells were lysed overnight using 1 ml 0.1% (w/v) Triton X-100 in 0.3 N NaOH at room temperature. Aliquots (500 μl) from each well were then transferred to scintillation vials containing 5 ml scintillation cocktail (Fisher Scientific, Fairlawn, N.J.). […] The amount of protein in the cell lysate was measured by the BioRad protein estimation kit using bovine serum albumin as standard (BioRad Protein estimation Kit, Hercules, Calif.). Analytical Procedures: All samples were assayed using HPLC. […] The column used was a C18 Luna column 4.6×250 mm (Phenomenex). The mobile phase consisted of a mixture of buffer and an organic modifier. The percentage of organic phase was varied in order to elute compounds of interest."}, "Caco-2 cell suspension": {"test_system": "Caco-2 cell suspension", "details": "Caco-2 cell suspension at pH 7.4; * = no intact drug detected during the experiment"}, "[1]": {"test_system": "oligopeptide transporter on the rabbit cornea", "details": "+10 mM of the ester"}, "in vitro": {"assay": "in vitro", "details": "human, Caco-2, pH 7.4"}, "[2]": {"assay": "Corneal permeation across freshly excised rabbit cornea", "details": "New Zealand albino"}}, "note": "Where two headings read alike, the source gives them in different places."}
{"compound": "CC(C)C(NC(=O)C(N)Cc1ccc(O)cc1)C(=O)OCCOCn1cnc2c(=O)[nH]c(N)nc21", "note": "(stereo not drawn) [Tyr-Val-ACV]", "values": [{"measurement": "Vmax of Gly-Sar uptake in presence of the drug", "setting": "hPEPT1; Gly-Sar with drug (10 mM), Lineweaver-Burk", "result": "0.091 ± 0.07", "unit": "µmol/min/mg"}, {"measurement": "Ki", "setting": "hPEPT1; Lineweaver-Burk", "result": "4.11 ± 0.32", "unit": "mM"}, {"measurement": "Ki", "setting": "hPEPT1; Michaelis-Menten", "result": "4.96 ± 0.97", "unit": "mM"}, {"measurement": "10^2 × kobs", "setting": "Caco-2 cell suspension", "result": "10.1 ± 0.46", "unit": "min^−1mg^−1 protein"}, {"measurement": "hydrolytic rate constant k", "setting": "Aqueous Humor", "result": "2.3 (±0.11) k × 10^3 min^−1 mg^−1 protein"}, {"measurement": "hydrolytic rate constant k", "setting": "Cornea homogenate", "result": "4.9 (±0.69) k × 10^3 min^−1 mg^−1 protein"}, {"measurement": "hydrolytic rate constant k", "setting": "Iris-Ciliary Body homogenate", "result": "5.3 (±0.74) k × 10^3 min^−1 mg^−1 protein"}, {"measurement": "hydrolytic rate constant k", "setting": "Lens homogenate", "result": "3.1 (±0.63) k × 10^3 min^−1 mg^−1 protein"}, {"measurement": "hydrolytic rate constant k", "setting": "Vitreous Humor", "result": "1.7 (±0.56) k × 10^3 min^−1 mg^−1 protein"}, {"measurement": "Papp (% Control) of [3H] Val-ACV", "setting": "[1]", "result": "31.1 (±9.5) % Control"}, {"measurement": "half-life at 0.2 mM", "setting": "in vitro", "result": "6.9 ± 0.3", "unit": "min"}, {"measurement": "Papp at 3 h", "setting": "[2]", "result": 7.19, "unit": "×10⁻⁶ cm/s"}]}
